pIC50: −log10 of the molar value. Structures can show the parent of a compound that is named as a salt.
Target: SHP2 (Homo sapiens (Human), UniProt Q06124)
Test: SHP2 Allosteric Inhibition Assay (DiFMUP prompt fluorescence)
Assay type: biochemical
Conditions: 0.25 nM SHP2 activated with 0.5 μM peptide IRS1_pY1172(dPEG8)pY1222; substrate DiFMUP 100 μM; 25° C.

SHP2, sequence (Q06124 whole entry): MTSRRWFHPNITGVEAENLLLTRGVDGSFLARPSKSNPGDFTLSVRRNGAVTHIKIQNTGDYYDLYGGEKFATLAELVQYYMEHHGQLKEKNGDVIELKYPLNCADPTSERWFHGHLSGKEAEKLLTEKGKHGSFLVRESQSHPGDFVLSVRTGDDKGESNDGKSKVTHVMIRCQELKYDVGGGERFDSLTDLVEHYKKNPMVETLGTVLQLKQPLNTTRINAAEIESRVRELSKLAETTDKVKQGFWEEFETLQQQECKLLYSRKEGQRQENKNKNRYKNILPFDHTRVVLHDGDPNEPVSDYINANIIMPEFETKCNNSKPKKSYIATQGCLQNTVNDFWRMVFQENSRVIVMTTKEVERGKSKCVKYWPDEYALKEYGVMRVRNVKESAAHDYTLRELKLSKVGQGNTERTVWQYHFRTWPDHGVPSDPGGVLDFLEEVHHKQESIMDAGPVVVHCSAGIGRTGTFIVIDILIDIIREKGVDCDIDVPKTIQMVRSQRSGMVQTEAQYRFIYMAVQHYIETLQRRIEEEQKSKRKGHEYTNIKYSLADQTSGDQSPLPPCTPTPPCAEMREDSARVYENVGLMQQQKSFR

Q: How did the pIC50 turn out when `C[C@@H]1C[C@H](O)CCN1c1cnc2c(N3CCCc4ncccc43)n[nH]c2n1` (racemic) [Compound 95, (2R,4R)-1-(3-(3,4-dihydro-1,5-naphthyridin-1(2H)-yl)-1H-pyrazolo[3,4-b]pyrazin-6-yl)-2-methylpiperidin-4-ol] was run?
A: ≤ 5.00

Q: With `C[C@@H]1C[C@@H](CN)CCN1c1cnc2c(N3CCCc4ncccc43)n[nH]c2n1` (racemic) [Compound 104, ((2R,4S)-1-(3-(3,4-dihydro-1,5-naphthyridin-1(2H)-yl)-1H-pyrazolo[3,4-b]pyrazin-6-yl)-2-methylpiperidin-4-yl)methanamine] as the compound, how does the pIC50 read?
A: > 6.00

Q: How did the pIC50 turn out when `C[C@@H]1C[C@H](CN)CCN1c1cnc2c(N3CCCc4ncccc43)n[nH]c2n1` (racemic) [Compound 109, ((2R,4R)-1-(3-(3,4-dihydro-1,5-naphthyridin-1(2H)-yl)-1H-pyrazolo[3,4-b]pyrazin-6-yl)-2-methylpiperidin-4-yl)methanamine] was run?
A: 5.00 to 6.00

Q: With `NC[C@H]1CCN(c2cnc3c(N4CCCc5ncccc54)n[nH]c3n2)[C@H](Cc2ccccc2)C1` (racemic) [Compound 158] as the compound, how does the pIC50 read?
A: ≤ 5.00

Q: How did the pIC50 turn out when `NC[C@H]1CCN(c2cnc3c(N4CCCc5ncccc54)n[nH]c3n2)[C@@H](Cc2ccccc2)C1` (racemic) [Compound 159] was run?
A: 5.00 to 6.00

Q: With `N[C@@H]1CCC[C@@]12CCN(c1cnc3c(N4CCCc5ncccc54)n[nH]c3n1)C2` (relative stereo) [Compound 206, rel-(5S,6R)-2-(3-(3,4-dihydro-1,5-naphthyridin-1(2H)-yl)-1H-pyrazolo[3,4-b]pyrazin-6-yl)-2-azaspiro[4.4]nonan-6-amine] as the compound, how does the pIC50 read?
A: 5.00 to 6.00

Q: `C[C@@H]1CCN(c2n[nH]c3nc(N4CCC5(CC4)CO[C@@H](C)[C@H]5N)cnc23)c2ccc(-c3ncc[nH]3)nc21` (relative stereo) [Compound 448, (3S,4S)-8-{3-[(4R*)-6-(1H-imidazol-2-yl)-4-methyl-1,2,3,4-tetrahydro-1,5-naphthyridin-1-yl]-1H-pyrazolo[3,4-b]pyrazin-6-yl)-3-methyl-2-oxa-8-azaspiro[4.5]decan-4-amine hydrochloride] was tested. Which pIC50 did it give?
A: > 6.00

Q: With `C[C@@H]1OCC2(CCN(c3cnc4c(N5CC[C@H](C)c6nc(-c7ncc[nH]7)ccc65)n[nH]c4n3)CC2)[C@@H]1N` (relative stereo) [Compound 449, (3S,4S)-8-{3-[(4R*)-6-(1H-imidazol-2-yl)-4-methyl-1,2,3,4-tetrahydro-1,5-naphthyridin-1-yl]-1H-pyrazolo[3,4-b]pyrazin-6-yl)-3-methyl-2-oxa-8-azaspiro[4.5]decan-4-amine hydrochloride] as the compound, how does the pIC50 read?
A: > 6.00

Q: How did the pIC50 turn out when `C[C@@H]1CCN(c2n[nH]c3nc(N4CCC5(CC4)CO[C@@H](C)[C@H]5N)cnc23)c2ccc(-c3noc(=O)[nH]3)nc21` (relative stereo) [Compound 450, 3-[(8R*)-5-{6-[(3S,4S)-4-amino-3-methyl-2-oxa-8-azaspiro[4.5]decan-8-yl]-1H-pyrazolo[3,4-b]pyrazin-3-yl}-8-methyl-5,6,7,8-tetrahydro-1,5-naphthyridin-2-yl]-4,5-dihydro-1,2,4-oxadiazol-5-one] was run?
A: > 6.00

Q: How did the pIC50 turn out when `C[C@@H]1OCC2(CCN(c3cnc4c(N5CC[C@H](C)c6nc(-c7noc(=O)[nH]7)ccc65)n[nH]c4n3)CC2)[C@@H]1N` (relative stereo) [Compound 451, 3-[(8R*)-5-{6-[(3S,4S)-4-amino-3-methyl-2-oxa-8-azaspiro[4.5]decan-8-yl]-1H-pyrazolo[3,4-b]pyrazin-3-yl}-8-methyl-5,6,7,8-tetrahydro-1,5-naphthyridin-2-yl]-4,5-dihydro-1,2,4-oxadiazol-5-one] was run?
A: > 6.00

Q: With `CCC1CCN(c2n[nH]c3nc(N4CCC(C)(CN)CC4)cnc23)c2ccccc21` (single isomer, unassigned) [Compound 102, hydrochloride] as the compound, how does the pIC50 read?
A: > 6.00

Q: How did the pIC50 turn out when `CCC1CCN(c2n[nH]c3nc(N4CCC(C)(CN)CC4)cnc23)c2ccccc21` (single isomer, unassigned) [Compound 103, hydrochloride] was run?
A: > 6.00

Q: With `C[C@H](N)C1(C)CCN(c2cnc3c(N4CCCc5ncccc54)n[nH]c3n2)CC1` (single isomer, unassigned) [Compound 110] as the compound, how does the pIC50 read?
A: > 6.00

Q: How did the pIC50 turn out when `C[C@@H](N)C1(C)CCN(c2cnc3c(N4CCCc5ncccc54)n[nH]c3n2)CC1` (single isomer, unassigned) [Compound 111] was run?
A: > 6.00

Q: With `C[C@@H]1CCN(c2n[nH]c3nc(N4CCC(C)(CN)CC4)cnc23)c2ccc(C#N)cc21` (single isomer, unassigned) [Compound 115] as the compound, how does the pIC50 read?
A: > 6.00

Q: With `C[C@H]1CCN(c2n[nH]c3nc(N4CCC(C)(CN)CC4)cnc23)c2ccc(C#N)cc21` (single isomer, unassigned) [Compound 116] as the compound, how does the pIC50 read?
A: > 6.00

Q: How did the pIC50 turn out when `CC1CCN(c2n[nH]c3nc(N4CCC(C)(CN)CC4)cnc23)c2cccnc21` (single isomer, unassigned) [Compound 128] was run?
A: > 6.00

Q: With `C[C@@H]1CCN(c2n[nH]c3nc(N4CCC(C)(CN)CC4)cnc23)c2ccc(-c3nccs3)nc21` (single isomer, unassigned) [Compound 196, hydrochloride] as the compound, how does the pIC50 read?
A: > 6.00

Q: How did the pIC50 turn out when `C[C@H]1CCN(c2n[nH]c3nc(N4CCC(C)(CN)CC4)cnc23)c2ccc(-c3nccs3)nc21` (single isomer, unassigned) [Compound 197, hydrochloride] was run?
A: > 6.00

Q: `C[C@@H]1CCN(c2n[nH]c3nc(N4CCC5(CC4)CO[C@@H](C)[C@H]5N)cnc23)c2ccc(C#N)c(F)c21` (single isomer, unassigned) [Compound 229] was tested. Which pIC50 did it give?
A: > 6.00

Q: How did the pIC50 turn out when `C[C@@H]1OCC2(CCN(c3cnc4c(N5CC[C@H](C)c6c5ccc(C#N)c6F)n[nH]c4n3)CC2)[C@@H]1N` (single isomer, unassigned) [Compound 230] was run?
A: > 6.00

Q: With `C[C@@H]1CCN(c2n[nH]c3nc(N4CCC5(CC4)CO[C@@H](C)[C@H]5N)cnc23)c2cc(F)cnc21` (single isomer, unassigned) [Compound 262, hydrochloride] as the compound, how does the pIC50 read?
A: > 6.00

Q: How did the pIC50 turn out when `C[C@@H]1OCC2(CCN(c3cnc4c(N5CC[C@H](C)c6ncc(F)cc65)n[nH]c4n3)CC2)[C@@H]1N` (single isomer, unassigned) [Compound 263, hydrochloride] was run?
A: > 6.00

Q: How did the pIC50 turn out when `C[C@@H]1OCC2(CCN(c3cnc4c(N5CC[C@H](C)c6nc(-c7ncon7)ccc65)n[nH]c4n3)CC2)[C@@H]1N` (single isomer, unassigned) [Compound 370] was run?
A: > 6.00

Q: With `C[C@@H]1CCN(c2n[nH]c3nc(N4CCC5(CC4)CO[C@@H](C)[C@H]5N)cnc23)c2ccc(-c3ncon3)nc21` (single isomer, unassigned) [Compound 371] as the compound, how does the pIC50 read?
A: > 6.00

Q: How did the pIC50 turn out when `C[C@@H]1C[C@@H](N)CCN1c1cnc2c(N3CCCc4ncccc43)n[nH]c2n1` (stereo in doubt) [Compound 24, rel-(2R,4S)-1-(3-(3,4-Dihydro-1,5-naphthyridin-1(2H)-yl)-1H-pyrazolo[3,4-b]pyrazin-6-yl)-2-methylpiperidin-4-amine] was run?
A: > 6.00

Q: With `C[C@H]1C[C@H](N)CCN1c1cnc2c(N3CCCc4ncccc43)n[nH]c2n1` (stereo in doubt) [Compound 25, rel-(2S,4R)-1-(3-(3,4-dihydro-1,5-naphthyridin-1(2H)-yl)-1H-pyrazolo[3,4-b]pyrazin-6-yl)-2-methylpiperidin-4-amine] as the compound, how does the pIC50 read?
A: > 6.00

Q: How did the pIC50 turn out when `C[C@@H]1C[C@@H](N)CCN1c1cnc2c(N3CCCc4ncccc43)n[nH]c2n1` (stereo in doubt) [Compound 74, rac-(2R,4S)-1-(3-(3,4-dihydro-1,5-naphthyridin-1(2H)-yl)-1H-pyrazolo[3,4-b]pyrazin-6-yl)-2-methylpiperidin-4-amine] was run?
A: > 6.00

Q: How did the pIC50 turn out when `N[C@@H]1CCC[C@]12CCN(c1cnc3c(N4CCCc5ncccc54)n[nH]c3n1)C2` (stereo in doubt) [Compound 204, rel-(5R,6R)-2-(3-(3,4-dihydro-1,5-naphthyridin-1(2H)-yl)-1H-pyrazolo[3,4-b]pyrazin-6-yl)-2-azaspiro[4.4]nonan-6-amine] was run?
A: 5.00 to 6.00

Q: `N[C@H]1CCC[C@@]12CCN(c1cnc3c(N4CCCc5ncccc54)n[nH]c3n1)C2` (stereo in doubt) [Compound 205, rel-(5S,6S)-2-(3-(3,4-dihydro-1,5-naphthyridin-1(2H)-yl)-1H-pyrazolo[3,4-b]pyrazin-6-yl)-2-azaspiro[4.4]nonan-6-amine] was tested. Which pIC50 did it give?
A: 5.00 to 6.00

Q: How did the pIC50 turn out when `CC1CCN(c2n[nH]c3nc(N4CCC5(CC4)CO[C@@H](C)[C@H]5N)cnc23)c2ccc(C(N)=O)nc21` (stereo in doubt) [Compound 264, (8S)-5-{6-[(3S,4S)-4-amino-3-methyl-2-oxa-8-azaspiro[4.5]decan-8-yl]-1H-pyrazolo[3,4-b]pyrazin-3-yl}-8-methyl-5,6,7,8-tetrahydro-1,5-naphthyridine-2-carboxamide] was run?
A: > 6.00

Q: With `CC1CCN(c2n[nH]c3nc(N4CCC5(CC4)CO[C@@H](C)[C@H]5N)cnc23)c2ccc(C(N)=O)nc21` (stereo in doubt) [Compound 265, (8R)-5-{6-[(3S,4S)-4-amino-3-methyl-2-oxa-8-azaspiro[4.5]decan-8-yl]-1H-pyrazolo[3,4-b]pyrazin-3-yl}-8-methyl-5,6,7,8-tetrahydro-1,5-naphthyridine-2-carboxamide] as the compound, how does the pIC50 read?
A: > 6.00

Q: `COCCNC(=O)c1ccc2c(n1)C(C)CCN2c1n[nH]c2nc(N3CCC4(CC3)CO[C@@H](C)[C@H]4N)cnc12` (stereo in doubt) [Compound 437, (8S)-5-(6-[(3S,4S)-4-amino-3-methyl-2-oxa-8-azaspiro[4.5]decan-8-yl]-1H-pyrazolo[3,4-b]pyrazin-3-yl)-N-(2-methoxyethyl)-8-methyl-5,6,7,8-tetrahydro-1,5-naphthyridine-2-carboxamide hydrochloride] was tested. Which pIC50 did it give?
A: > 6.00

Q: With `N[C@@H]1CC(O)CC12CCN(c1cnc3c(N4CCCc5ncccc54)n[nH]c3n1)CC2` (stereo in doubt) [Compound 468, (2R,4R)-4-amino-8-(3-(3,4-dihydro-1,5-naphthyridin-1(2H)-yl)-1H-pyrazolo[3,4-b]pyrazin-6-yl)-8-azaspiro[4.5]decan-2-ol] as the compound, how does the pIC50 read?
A: > 6.00

Q: How did the pIC50 turn out when `NC1CCCC12CCN(c1cnc3c(Sc4cccnc4C(F)(F)F)n[nH]c3n1)CC2` (stereo in doubt) [Compound 476, (S)-8-(3-((2-(trifluoromethyl)pyridin-3-yl)thio)-1H-pyrazolo[3,4-b]pyrazin-6-yl)8-azaspiro[4.5]decan-1-amine] was run?
A: > 6.00
